Test results as given in ChEMBL document CHEMBL5346883, “Discovery and pharmacological characterization of a novel benzimidazole TRPV4 antagonist with cyanocyclobutyl moiety” (Eur J Med Chem, 2023).

Legend:
[1] = target: T1, Transient receptor potential cation channel subfamily V member 4 (Homo sapiens, UniProt Q9HBA0); experiment: Antagonist activity at TRPV4 (unknown origin) expressed in Flp-In-CHO cells assessed as inhibition of GSK1016790A induced Ca2+ influx by calcium imaging method; assay type: cell-based
T1 sequence (Q9HBA0 whole entry): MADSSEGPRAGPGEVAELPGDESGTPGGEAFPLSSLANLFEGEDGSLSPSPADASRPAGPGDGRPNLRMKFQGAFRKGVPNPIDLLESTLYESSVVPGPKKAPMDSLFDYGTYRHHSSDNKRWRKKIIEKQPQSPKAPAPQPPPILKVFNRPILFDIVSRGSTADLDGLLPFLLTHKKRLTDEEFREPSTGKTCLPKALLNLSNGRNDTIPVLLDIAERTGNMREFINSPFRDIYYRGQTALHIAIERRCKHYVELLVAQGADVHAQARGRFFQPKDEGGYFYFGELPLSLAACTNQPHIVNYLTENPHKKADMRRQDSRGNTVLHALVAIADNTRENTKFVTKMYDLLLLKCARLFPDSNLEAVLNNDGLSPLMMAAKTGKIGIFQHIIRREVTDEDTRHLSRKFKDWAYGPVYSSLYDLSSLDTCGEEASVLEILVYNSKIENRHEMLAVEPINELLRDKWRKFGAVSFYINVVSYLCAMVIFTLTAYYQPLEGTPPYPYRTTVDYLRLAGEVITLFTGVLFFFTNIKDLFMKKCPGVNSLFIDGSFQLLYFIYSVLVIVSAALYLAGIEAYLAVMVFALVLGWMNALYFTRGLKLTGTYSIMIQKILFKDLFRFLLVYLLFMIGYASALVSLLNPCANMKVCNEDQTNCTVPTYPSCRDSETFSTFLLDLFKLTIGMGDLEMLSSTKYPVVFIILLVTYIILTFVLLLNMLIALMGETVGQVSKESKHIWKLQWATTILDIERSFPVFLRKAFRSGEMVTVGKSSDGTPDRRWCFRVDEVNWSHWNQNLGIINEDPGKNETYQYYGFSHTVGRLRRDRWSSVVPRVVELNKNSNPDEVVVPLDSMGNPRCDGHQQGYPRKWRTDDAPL

[2] = target: T1, Transient receptor potential cation channel subfamily V member 4; experiment: Antagonist activity at human TRPV4
Mus musculus [3] = experiment: Antiinflammatory activity in LPS-induced acute lung injury mouse model assessed as pathological score at 1 mg/kg, ip by hematoxylin and eosin staining based analysis; assay type: functional
Mus musculus [4] = experiment: Antiinflammatory activity in LPS-induced acute lung injury mouse model assessed as BALF protein concentration at 1 mg/kg, ip; assay type: functional
[5] = Cytotoxicity against human HUVEC cells assessed as reduction in cell viability; assay type: toxicity, cell-based

Structure (SMILES) | IC50 [1] | IC50 [2] | Activity (Mus musculus [3]) | Activity (Mus musculus [4]) | CC50 [5]
Cc1c(C(=O)Nc2cccc(C(F)(F)F)c2)cc(-c2ccccc2)n1CCCN1CCOCC1 | 73.6 nM | 203 nM | 5.4 | 1.5 | 
CC(=O)Nc1c(Cl)c(Cl)cc2c1nc(NC(C)C)n2C1CCN(c2ccc(C3(C#N)CCCC3)cc2)CC1 |  |  |  |  | > 100000 nM
CC(=O)Nc1c(Cl)c(Cl)cc2c1nc(NC(C)C)n2C1CCN(c2ccc(C3(C#N)CCC3)cc2)CC1 |  |  |  |  | > 100000 nM
CC(C)C[C@H](NC(=O)c1cc2ccccc2s1)C(=O)N1CCN(C(=O)[C@H](CO)NS(=O)(=O)c2ccc(Cl)cc2Cl)CC1 | 122 nM |  |  |  | 
